A short description of series [1]: Fast release of cannabinoids from GLPs embedded in adjuvant, simulated saliva with or without tissue, 1 minute. The following applies: for cannabinoid release from GLP in 1 minute: cannabinoid loaded alone, no release agent; for THC released in 1 minute: 37° C. Type of series: physicochemical. Here is the method: Composition of simulated saliva was 0.72 g/L potassium chloride, 0.22 g/L calcium chloride dihydrate, 0.68 g/L potassium phosphate monobasic, 0.866 g/L sodium phosphate dibasic, 1.5 g/L potassium bicarbonate, 0.06 g/L potassium thiocyanate, and 0.03 g/L citric acid. Samples of dry GLP-THC (4 mg) were resuspended in 1 mL of (A) water, (B) dry glycerin or (C) SEDDS mixture (3.3 mg/mL lecithin in 3% MCT in glycerin). The GLP THC suspensions were diluted with simulated saliva (25% simulated saliva+75% GLP THC in solvent mixture) with and without the addition of a sample of 75-100 mg fat tissue. The samples were incubated for 1 minute at 37° C., and then the fractions were separated to quantify THC in the GLP pellet (THC not released), THC in supernatant (released) and THC in the tissue (released from GLP and absorbed by the tissue). The THC absorbed in the tissue was extracted in 100% methanol and the THC remaining in GLPs was extracted in 80% ethanol-20% water. The THC in all fractions was quantified by HPLC.
GLPs were loaded with a THC:GLP weight ratio of 1:1 and embedded in different solvents. THC release was achieved and quantified as described before (FIG. 9).
GLPs were loaded with a THC and undecanoic acid as a release agent (RA). Loaded GLPs were embedded in adjuvants (water, glycerin or SEDDS mixture). THC release was achieved and quantified as described before (FIG. 9).
GLPs were loaded with a CBD, CBN or CBG and octanoic acid as a RA. Loaded GLPs were embedded in adjuvant water or SEDDS mixture. Cannabinoid release was achieved and quantified as described before for THC (FIG. 9).

For series [2], the system named is H. pylori. Particulars: cited from earlier work.
Series [3] deals with C. albicans. The following applies: by enhancing potassium leakage and disrupting membrane fluidity; cited from earlier work.
In series [4] the test system is S. cerevisiae. The following applies: by enhancing potassium leakage and disrupting membrane fluidity; cited from earlier work.
The nature of series [5]: Stability of CBD-SA-RA o/w emulsions. Format: physicochemical. The following applies: for Stable CBD o/w emulsion: 1 mg/mL in water, room temperature 30 minutes; for Stable CBD-OA-RA o/w emulsion: 1 mg/mL in water by sonication, room temperature for 30 minutes, precipitate/phase partitioning = unstable.
The nature of series [6]: Micelle size of CBD-SA-RA emulsions. Type of series: physicochemical.
Series [7] can be described thus: Release of oleamide from GLPs in simulated saliva with or without tissue. Format: physicochemical. Here is the method: The release of oleamide encapsulated in GLPs using octanoic acid or undecanoic acid as loading solvent or as leave-in solvent was tested. To perform the release assay, the GLP-oleamide suspensions were diluted with simulated saliva (25% simulated saliva+75% GLP in solvent mixture) with and without the addition of a sample of 75-100 mg fat tissue. […], and then the fractions were separated to quantify oleamide in the GLP pellet (unreleased oleamide), oleamide in the supernatant (released) and oleamide in the tissue (released from GLP and absorbed by the tissue). The oleamide absorbed in the tissue was extracted in 100% methanol and the oleamide remaining in GLPs was extracted in 80% ethanol-20% water. The oleamide in all fractions was quantified by HPLC. […] Oleamide was released at a low efficiency (2%) from GLPs with simulated saliva and higher efficiency (34-40%) with simulated saliva and tissue. The addition of UA as the leave-in solvent increased OA release from 34% to 46% in 5 minutes and from 40% to 58% with simulated saliva and tissue

Series [8] is described as follows: Sustained CBD release from GLPs with sequestering/release agents in simulated saliva. Type of series: physicochemical. Here is the method: GLPs were loaded at a weight ratio of CBD:OA:GLP of 2:1:1. […] Aliquots (200 μL) were collected at 1, 3, 6 and 24 h and the samples were centrifuged to separate supernatant (released CBD fraction) and GLP pellet. Released CBD was quantified in the supernatants by HPLC as described before.
The effect of addition of RAs to CBD with OA as SA was tested.
GLPs were loaded with CBD, OA and various RAs. Release assays were performed by the procedure described as before.
[…] Aliquots (200 μL) were collected at 1, 3, 6 and 24 h and the samples were centrifuged to separate supernatant (released CBD fraction) and GLP pellet. Released CBD was quantified in the supernatants by HPLC as described before.

Series [9] is described as follows: Maximum solubility of surfactants in OA or UDA. Format: physicochemical.
For series [10] the following is noted: hydrophilic-lipophilic balance; cited from earlier work.
Series [11] can be described thus: Physical state of THC-UDA-RA mixture at room temperature. Format: physicochemical. Here is the method:
Various RAs were tested as described before for their ability to stabilize micelles formed when GLPs encapsulate THC as the payload and UDA as the SA.

A short description of series [12]: Sustained THC release from GLP-THC-UDA with or without RA in simulated saliva + tissue. Format: physicochemical. The following applies: simulated saliva + tissue at 37° C.; 1 to 24 h. Here is the method:
GLPs were loaded at a weight ratio of CBD:OA:GLP of 2:1:1. Dry GLP-CBD (5 mg) were resuspended in 1 mL of simulated saliva, a 75-100 mg piece of simulated tissue was added to the sample and incubated at 37° C. with constant mixing. Aliquots (200 μL) were collected at 1, 3, 6 and 24 h and the samples were centrifuged to separate supernatant (released CBD fraction) and GLP pellet. Released CBD was quantified in the supernatants by HPLC as described before.
The effect of addition of RAs to THC with UDA as SA was tested. Release assays were performed as described as before.

[13] abbreviates: CBD-SA-RA emulsion, RA TRITON X100 20 % w/w.

Entries after “also recorded” stand apart in the source; their conditions may differ. Where two headings read alike, the source gives them in different places.

On to `CCCCCc1cc(O)c(C/C=C(\C)CCC=C(C)C)c(O)c1` [CBG, cannabigerol], for which the “cannabinoid release from GLP in 1 minute” value in series [1] was “do not release efficiently”.
As for `CC(C)=CCC/C(C)=C/CO` [Geraniol], in [2], the “concentration that inhibited in vitro growth” value was 2 mg/L. In addition, the growth inhibition result in [3] and in series [4] was “inhibit the growth” each time.
`CCCCCCCC(=O)O` [Octanoic acid]: the “Stable CBD o/w emulsion” value in series [5] (CBD-SA emulsion without RA) is listed as “No”; in [5] (setting [13]), “Yes”. The “CBD-SA-RA micelle size (nm)” value in [6] (without RA) amounted to 379 nm.
In the case of `CCCCCc1cc(O)c2c(c1)OC(C)(C)c1ccc(C)cc1-2` [CBN, cannabinol], the “cannabinoid release from GLP in 1 minute” value in series [1] is given as “do not release efficiently”.
As for `CCCCCCCC/C=C\CCCCCCCC(N)=O` [Oleamide, oleamide], the “% oleamide Released” value in series [7] (simulated saliva (no tissue), 1 hour) is recorded as 2%; in series [7] (simulated saliva + tissue, 5 minutes), 34%; in series [7] (simulated saliva + tissue, 1 hour), 40%. The oleamide release efficiency in [7] (simulated saliva and tissue, 5 minutes to 1 hour) is 34-40%.
As to `C=C(C)[C@@H]1CCC(C)=C[C@H]1c1c(O)cc(CCCCC)cc1O` [CBD, cannabidiol, reference compound], the “cannabinoid release from GLP in 1 minute” value in [1] is reported as “do not release efficiently”. Also, the “time after which CBD release plateaued” value in series [8] (GLPs CBD:OA:GLP 2:1:1, OA as SA, simulated saliva) is 6 h. In series [8] (GLPs CBD:OA:GLP 2:1:1, OA as SA, simulated saliva (without simulated tissue), 37° C.), the “CBD released after 24 h incubation” value is at most 25%.
As to `CCCCCc1cc(O)c2c(c1)OC(C)(C)[C@@H]1CCC(C)=C[C@@H]21` [THC, tetrahydrocannabinol], the “THC released in 1 minute” value was “up to 53%” in series [1] (GLPs (THC:GLP 1:1) embedded in SEDDS mixture (lecithin/MCT/glycerin), simulated saliva with tissue); “Up to 30%” in series [1] (GLPs (THC:GLP 1:1) embedded in SEDDS mixture (lecithin/MCT/glycerin), simulated saliva without tissue); “Up to 30%” in series [1] (GLPs (THC:GLP 1:1) embedded in glycerin, simulated saliva containing tissue).
As for `C=CC(C)(O)CCC=C(C)CCC=C(C)C` (stereo not shown) [Nerolidol], the “total CBD release at 24 hours” value in [8] (SA plus TRITON X-100 as RA, simulated saliva + tissue at 37° C.) is on record as 37%. Also, the “course of CBD release with SA and TRITON X-100 as RA” value in series [8] (simulated saliva + tissue at 37° C.) is on record as “did not lead to CBD release in the first 6 hours”. Further, the “Stable CBD o/w emulsion” value in series [5] (CBD-SA emulsion without RA) was “No”; in [5] (setting [13]), “Yes”. The “CBD-SA-RA micelle size (nm)” value is on record as 661 nm in series [6] (RA TRITON X100 20 % w/w) and 1260 nm in series [6] (without RA).
Take TWEEN 20: in [9], the “Maximum solubility in OA” value is recorded as 20% w/w. The “Stable CBD-OA-RA o/w emulsion” value in series [5] was “No”. The HLB in series [10] is recorded as 16.7.
Take TRITON ™ X-100: the “fold increase of CBD release compared to GLP-CBD-OA control sample” value in series [8] (GLP-CBD-OA-RA, simulated saliva with tissue) is 1.7-2.0 fold. Besides, the “effect of RA on sustained CBD release from GLP-CBD-OA” value in [8] (simulated saliva with tissue, 1 to 6 hours) is given as “improvement of sustained release from 1 to 6 hours”. Moreover, the “Maximum solubility in OA” value in [9] worked out at 20% w/w. In series [9], the “Maximum solubility in UDA” value amounted to 37.5% w/w. Also, the figures for the “Stable CBD-OA-RA o/w emulsion” value in series [5] and in series [5] (listed as TRITON™ X-100) were “Yes” and “form stable micelles”, respectively. Further, the “Physical State of THC-UDA-RA mixture at room temperature” value is “mixture of oil and solid UDA” in [11]; “Solid” in series [11] (listed as TRITONTM X-100). Further, the “effect of RA on sustained THC release from GLP-THC-UDA” value in [12] is on record as “did not improve sustained release from 1 to 6 h; also recorded: yielded high THC release at the 24 hour time point”. The HLB in series [10] is given as 13.5.
As to TWEEN 80, the “Maximum solubility in OA” value in series [9] is listed as 25% w/w. In series [5], the “Stable CBD-OA-RA o/w emulsion” value is on record as “No”. Besides, in series [10], the HLB is 15.

Values taken from patent publication US20240058403A1, “YEAST PARTICLES FOR DELIVERY OF WATER-ACTIVATED SELF-EMULSIFYING CANNABINOID FORMULATIONS” (UNIVERSITY OF MASSACHUSETTS, priority 2022, published 2024).
